{"source": "patent US7595395B2", "about": "“Gabaergic agents to treat memory deficits” (priority 2005, dated 2009)", "key": {"C57B1/6 mice": {"tested_on": "C57B1/6 mice", "details": "DeLorey et al.; cited from earlier work"}, "GABAA/α5 receptors": {"molecular_target": "GABAA/α5 receptors (Homo sapiens, UniProt P18507+P31644)", "sequence (P28472 26-473 partner, one chain of several)": "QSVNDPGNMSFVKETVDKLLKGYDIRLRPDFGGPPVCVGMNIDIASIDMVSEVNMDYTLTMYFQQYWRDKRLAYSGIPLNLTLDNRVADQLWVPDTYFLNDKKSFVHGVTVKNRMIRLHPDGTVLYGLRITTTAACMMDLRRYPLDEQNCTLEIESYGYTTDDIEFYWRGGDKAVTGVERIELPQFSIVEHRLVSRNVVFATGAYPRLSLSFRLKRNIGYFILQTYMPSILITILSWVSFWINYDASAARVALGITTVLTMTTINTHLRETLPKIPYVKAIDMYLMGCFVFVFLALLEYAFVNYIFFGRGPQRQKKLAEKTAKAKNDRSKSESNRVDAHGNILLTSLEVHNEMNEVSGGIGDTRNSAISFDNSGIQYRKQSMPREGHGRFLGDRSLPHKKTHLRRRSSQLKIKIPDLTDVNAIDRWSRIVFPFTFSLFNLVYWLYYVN", "details": "Huang et al. 2000, WO 03/082832A2; cited from earlier work"}, "GABAA/α3 receptors": {"molecular_target": "GABAA/α3 receptors (Homo sapiens, UniProt P18507+P34903)", "details": "Huang et al. 2000, WO 03/082832A2; cited from earlier work"}, "GABAA/α1 receptors": {"molecular_target": "GABAA/α1 receptors (Homo sapiens, UniProt P14867+P18507)", "details": "Huang et al. 2000, WO 03/082832A2; cited from earlier work"}, "GABAA/α2 receptors": {"molecular_target": "GABAA/α2 receptors (Homo sapiens, UniProt P18507+P47869)", "sequence (P47869 29-451, one chain of several)": "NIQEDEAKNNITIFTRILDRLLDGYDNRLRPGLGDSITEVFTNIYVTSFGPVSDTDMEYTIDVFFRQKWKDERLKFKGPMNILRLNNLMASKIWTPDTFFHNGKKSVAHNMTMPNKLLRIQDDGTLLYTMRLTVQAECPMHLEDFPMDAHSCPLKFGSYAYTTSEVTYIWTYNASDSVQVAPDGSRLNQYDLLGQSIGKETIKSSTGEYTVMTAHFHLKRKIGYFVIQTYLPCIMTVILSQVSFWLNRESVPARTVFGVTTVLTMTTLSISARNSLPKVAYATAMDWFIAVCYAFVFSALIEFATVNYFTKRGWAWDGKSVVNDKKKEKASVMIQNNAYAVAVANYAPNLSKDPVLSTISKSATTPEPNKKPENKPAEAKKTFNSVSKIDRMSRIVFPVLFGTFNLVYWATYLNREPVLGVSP", "sequence (P28472 26-473 partner, one chain of several)": "as the sequence (P28472 26-473 partner, one chain of several) above", "details": "Huang et al. 2000, WO 03/082832A2; cited from earlier work"}, "[1]": {"tested_on": "GABAA receptor subtypes (alpha 1 to alpha 6 with beta 3 and gamma 2)", "assay": "Direct triggering of chloride currents in oocytes, all tested subtypes", "assay_type": "cell-based", "details": "no GABA"}, "α1β3γ2 GABAA receptor": {"molecular_target": "α1β3γ2 GABAA receptor (Rattus norvegicus, UniProt P18508+P62813)", "sequence (P62813 28-455)": "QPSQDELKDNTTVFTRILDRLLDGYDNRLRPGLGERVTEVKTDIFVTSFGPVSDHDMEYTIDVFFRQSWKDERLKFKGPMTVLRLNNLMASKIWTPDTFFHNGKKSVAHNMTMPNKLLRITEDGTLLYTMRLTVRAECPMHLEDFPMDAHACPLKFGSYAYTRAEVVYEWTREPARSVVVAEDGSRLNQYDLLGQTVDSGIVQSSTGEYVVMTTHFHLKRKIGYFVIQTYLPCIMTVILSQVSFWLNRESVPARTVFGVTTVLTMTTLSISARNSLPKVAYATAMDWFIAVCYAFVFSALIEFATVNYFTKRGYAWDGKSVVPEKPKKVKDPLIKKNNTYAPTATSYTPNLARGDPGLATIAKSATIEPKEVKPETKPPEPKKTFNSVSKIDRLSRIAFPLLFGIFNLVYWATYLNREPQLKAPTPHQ", "sequence (P63079 26-473 partner)": "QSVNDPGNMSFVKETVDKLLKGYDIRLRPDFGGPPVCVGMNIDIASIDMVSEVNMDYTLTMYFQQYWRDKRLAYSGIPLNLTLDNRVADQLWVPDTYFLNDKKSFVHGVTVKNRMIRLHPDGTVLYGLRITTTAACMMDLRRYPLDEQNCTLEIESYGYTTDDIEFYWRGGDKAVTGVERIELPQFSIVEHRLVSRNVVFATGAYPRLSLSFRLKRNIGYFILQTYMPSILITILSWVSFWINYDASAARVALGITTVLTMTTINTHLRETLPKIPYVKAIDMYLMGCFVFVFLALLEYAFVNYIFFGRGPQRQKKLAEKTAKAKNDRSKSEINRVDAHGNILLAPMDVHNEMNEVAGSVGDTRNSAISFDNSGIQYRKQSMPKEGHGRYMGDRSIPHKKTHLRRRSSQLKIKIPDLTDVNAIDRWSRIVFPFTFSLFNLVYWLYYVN", "sequence (P18508 39-466)": "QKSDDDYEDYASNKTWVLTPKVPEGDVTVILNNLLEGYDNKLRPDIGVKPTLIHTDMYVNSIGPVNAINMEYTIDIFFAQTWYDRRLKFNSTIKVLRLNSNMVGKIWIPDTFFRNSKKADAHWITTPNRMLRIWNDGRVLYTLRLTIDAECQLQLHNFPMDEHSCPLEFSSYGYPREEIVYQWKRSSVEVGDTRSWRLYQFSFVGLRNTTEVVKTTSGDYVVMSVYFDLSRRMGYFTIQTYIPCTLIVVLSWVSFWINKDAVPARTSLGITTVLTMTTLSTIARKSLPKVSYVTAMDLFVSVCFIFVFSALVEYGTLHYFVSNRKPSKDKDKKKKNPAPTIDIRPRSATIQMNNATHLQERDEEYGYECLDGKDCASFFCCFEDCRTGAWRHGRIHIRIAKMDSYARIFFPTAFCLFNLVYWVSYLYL", "assay": "Two-electrode voltage clamp in Xenopus oocytes, α1β3γ2"}, "α2β3γ2 GABAA receptor": {"molecular_target": "α2β3γ2 GABAA receptor (Rattus norvegicus, UniProt P18508+P23576)", "sequence (P23576 29-451)": "as the sequence (P47869 29-451, one chain of several) above, with L88S, A174P, A330G counted along it", "sequence (P63079 26-473 partner)": "as the sequence (P63079 26-473 partner) above", "sequence (P18508 39-466)": "as the sequence (P18508 39-466) above", "assay": "Two-electrode voltage clamp in Xenopus oocytes, α2β3γ2"}, "α3β3γ2 GABAA receptor": {"molecular_target": "α3β3γ2 GABAA receptor (Rattus norvegicus, UniProt P18508+P20236)", "sequence (P20236 29-493)": "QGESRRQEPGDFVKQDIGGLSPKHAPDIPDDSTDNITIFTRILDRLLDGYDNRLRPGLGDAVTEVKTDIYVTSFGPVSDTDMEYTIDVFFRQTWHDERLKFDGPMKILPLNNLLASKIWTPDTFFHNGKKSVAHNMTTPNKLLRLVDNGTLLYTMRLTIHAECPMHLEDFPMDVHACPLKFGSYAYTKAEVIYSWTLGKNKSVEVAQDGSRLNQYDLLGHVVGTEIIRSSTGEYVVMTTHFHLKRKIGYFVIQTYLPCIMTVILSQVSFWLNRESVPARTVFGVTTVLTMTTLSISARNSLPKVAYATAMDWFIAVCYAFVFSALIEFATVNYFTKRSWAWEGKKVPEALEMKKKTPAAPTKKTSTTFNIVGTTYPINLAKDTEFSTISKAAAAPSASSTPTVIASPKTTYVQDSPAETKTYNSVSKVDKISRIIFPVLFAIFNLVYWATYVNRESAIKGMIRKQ", "sequence (P63079 26-473 partner)": "as the sequence (P63079 26-473 partner) above", "sequence (P18508 39-466)": "as the sequence (P18508 39-466) above", "assay": "Two-electrode voltage clamp in Xenopus oocytes, α3β3γ2"}, "[2]": {"assay": "Crossing of the blood brain barrier", "details": "in vivo"}, "[3]": {"molecular_target": "T1, α5β3γ2 benzodiazepine receptor GABA(A) isoform (UniProt P18507+P31644)", "T1 sequence (P18507 1-475)": "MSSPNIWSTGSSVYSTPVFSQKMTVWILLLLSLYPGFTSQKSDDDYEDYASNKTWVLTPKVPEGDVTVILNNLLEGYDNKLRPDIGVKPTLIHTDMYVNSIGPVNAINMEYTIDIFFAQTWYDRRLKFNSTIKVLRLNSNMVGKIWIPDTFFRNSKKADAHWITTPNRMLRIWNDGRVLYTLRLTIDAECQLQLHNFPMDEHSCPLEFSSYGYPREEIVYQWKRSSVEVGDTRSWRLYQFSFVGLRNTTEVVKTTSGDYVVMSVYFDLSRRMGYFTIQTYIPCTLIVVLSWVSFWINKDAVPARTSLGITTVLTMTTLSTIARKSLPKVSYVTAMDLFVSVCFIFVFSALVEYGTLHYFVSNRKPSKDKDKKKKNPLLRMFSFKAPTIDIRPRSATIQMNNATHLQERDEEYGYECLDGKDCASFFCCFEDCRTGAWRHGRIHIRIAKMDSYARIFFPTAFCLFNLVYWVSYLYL", "T1 sequence (P31644 1-462)": "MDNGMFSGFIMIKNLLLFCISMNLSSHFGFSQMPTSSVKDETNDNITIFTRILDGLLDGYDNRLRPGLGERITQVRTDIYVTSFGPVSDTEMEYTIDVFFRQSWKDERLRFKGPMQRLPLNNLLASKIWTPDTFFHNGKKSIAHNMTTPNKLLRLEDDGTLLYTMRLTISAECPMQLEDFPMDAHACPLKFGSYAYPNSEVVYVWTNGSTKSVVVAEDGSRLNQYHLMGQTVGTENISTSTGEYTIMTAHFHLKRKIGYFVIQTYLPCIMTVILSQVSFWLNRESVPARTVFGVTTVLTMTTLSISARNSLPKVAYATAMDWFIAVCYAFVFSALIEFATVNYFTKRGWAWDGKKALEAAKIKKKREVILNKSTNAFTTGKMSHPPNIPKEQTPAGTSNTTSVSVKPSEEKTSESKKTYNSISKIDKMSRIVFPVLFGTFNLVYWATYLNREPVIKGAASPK", "assay": "Radioligand competition binding, α5β3γ2 BzR/GABA(A) isoform", "parameters": "rows headed: Ki at α5β3γ2 subtypes; other: text; α1-6β3γ2 LTK cells; species or system human and rat", "details": "read-out: Ki at α5β3γ2 subtypes; α1-6β3γ2 LTK cells"}, "[4]": {"tested_on": "αxβ3γ2 (α = 1-6) BzR/GABA(A) subtypes", "assay": "Binding across the BzR/GABA(A) subtypes (subtype selectivity in words)", "parameters": "species or system human and rat", "procedure": "The binding affinity of XLi093 (8) in vitro was determined on α1-6β3γ2 LTK cells and is illustrated in the Scheme as shown in FIG. 2\nThe affinity of all ligands at the 6 major recombinant GABAA/BzR subtypes was measured by competition for [^3H]Ro15-1788 binding to HEK-T cells expressing both human and rat GABAA/Bz receptors of composition α1β2γ2 (α1), α2β2γ2 (α2), α3β2γ2 (α3), α4β2γ2 (α4), α5β2γ2 (α5) and α6β2γ2 (α6). It is well known that the β2 and β3 subunits can be interchanged with no effect on Bz ligand affinity or efficacy. […] These studies are similar to those performed in the laboratory of Bryan Roth who has already expressed the receptors employing the work of Kucken et. al. and Gray et. al.\nIn brief, for membrane preparations, the cells were scraped on to the ice and diluted into 5 mL of phosphate buffered saline (pH=7.40) and cells pelleted by centrifugation for 5 min. at 4° C. The pellet was resuspended in 1 mL of 50 mM Tris-acetate buffer (pH 7.4) and centrifuged at 18,000 g for 20 min. […] The membranes were harvested in polyethyleneimine-pretreated Whatman GF/C filters and after drying and addition of scintillation cocktail, counted in a scintillation counter. […]"}, "α5β3γ2 GABAA receptor": {"molecular_target": "α5β3γ2 GABAA receptor (Rattus norvegicus, UniProt P18508+P19969)", "sequence (P19969 26-464)": "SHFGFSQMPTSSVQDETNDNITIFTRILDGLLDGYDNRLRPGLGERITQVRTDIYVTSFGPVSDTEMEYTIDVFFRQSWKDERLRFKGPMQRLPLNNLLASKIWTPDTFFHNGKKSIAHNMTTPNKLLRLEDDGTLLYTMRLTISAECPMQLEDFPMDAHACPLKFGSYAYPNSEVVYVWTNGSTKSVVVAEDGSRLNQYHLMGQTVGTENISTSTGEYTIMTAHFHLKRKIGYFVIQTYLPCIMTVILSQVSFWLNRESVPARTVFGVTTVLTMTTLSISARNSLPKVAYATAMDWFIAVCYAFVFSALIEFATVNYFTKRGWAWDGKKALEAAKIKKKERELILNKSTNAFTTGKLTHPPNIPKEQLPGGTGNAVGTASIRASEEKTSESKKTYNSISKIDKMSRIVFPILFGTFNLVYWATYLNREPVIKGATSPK", "sequence (P63079 26-473 partner)": "as the sequence (P63079 26-473 partner) above", "sequence (P18508 39-466)": "as the sequence (P18508 39-466) above", "assay": "Two-electrode voltage clamp in Xenopus oocytes, α5β3γ2"}, "C57BL/6J mice": {"tested_on": "C57BL/6J mice", "assay": "Titrating delayed matching-to-position schedule", "assay_type": "in vivo", "procedure": "In regard to cognition, the effect of systemic administration of subtype selective agents on short term memory was determined in white Carneau pigeons. Administration of drug was intramuscularly and the titrating matching-to-sample schedule of reinforcement was used. […] In addition, C57BL/6J mice were used to look at the mean delay achieved in the titrating delayed matching-to-position schedule (doses, ip)."}, "α6β3γ2 GABAA receptor": {"molecular_target": "α6β3γ2 GABAA receptor (Rattus norvegicus, UniProt P18508+P30191)", "sequence (P30191 20-453)": "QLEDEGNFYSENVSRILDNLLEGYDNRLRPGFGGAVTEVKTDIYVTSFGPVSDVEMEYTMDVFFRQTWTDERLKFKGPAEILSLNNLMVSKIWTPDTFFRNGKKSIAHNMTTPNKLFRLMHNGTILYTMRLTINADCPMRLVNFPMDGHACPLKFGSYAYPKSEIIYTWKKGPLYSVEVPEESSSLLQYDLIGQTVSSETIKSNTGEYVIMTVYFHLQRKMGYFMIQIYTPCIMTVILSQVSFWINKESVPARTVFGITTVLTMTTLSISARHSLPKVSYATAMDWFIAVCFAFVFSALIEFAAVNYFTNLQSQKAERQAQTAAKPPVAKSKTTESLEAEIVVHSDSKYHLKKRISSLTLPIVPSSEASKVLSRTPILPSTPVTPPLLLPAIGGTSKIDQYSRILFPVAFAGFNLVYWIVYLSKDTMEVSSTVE", "sequence (P63079 26-473 partner)": "as the sequence (P63079 26-473 partner) above", "sequence (P18508 39-466)": "as the sequence (P18508 39-466) above", "assay": "Two-electrode voltage clamp in Xenopus oocytes, α6β3γ2"}, "α4β3γ2 GABAA receptor": {"molecular_target": "α4β3γ2 GABAA receptor (Rattus norvegicus, UniProt P18508+P28471)", "sequence (P28471 36-552)": "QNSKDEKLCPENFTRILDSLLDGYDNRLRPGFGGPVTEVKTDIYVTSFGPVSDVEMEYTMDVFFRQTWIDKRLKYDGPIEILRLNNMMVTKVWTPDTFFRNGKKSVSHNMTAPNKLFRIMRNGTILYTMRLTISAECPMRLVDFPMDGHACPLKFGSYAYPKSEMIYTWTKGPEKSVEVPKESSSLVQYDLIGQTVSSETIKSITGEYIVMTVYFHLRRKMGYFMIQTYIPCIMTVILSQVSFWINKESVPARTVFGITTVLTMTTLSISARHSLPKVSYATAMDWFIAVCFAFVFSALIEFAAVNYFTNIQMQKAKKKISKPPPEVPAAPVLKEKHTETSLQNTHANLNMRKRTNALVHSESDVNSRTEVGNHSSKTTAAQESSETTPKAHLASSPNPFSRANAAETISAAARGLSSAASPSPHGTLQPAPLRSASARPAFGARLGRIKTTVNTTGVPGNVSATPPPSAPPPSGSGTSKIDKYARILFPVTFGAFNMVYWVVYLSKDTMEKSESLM", "sequence (P63079 26-473 partner)": "as the sequence (P63079 26-473 partner) above", "sequence (P18508 39-466)": "as the sequence (P18508 39-466) above", "assay": "Two-electrode voltage clamp in Xenopus oocytes, α4β3γ2"}}, "data": [{"smiles": "CCOC(=O)c1ncn2c1CN(C)C(=O)c1cc(CC)ccc1-2", "note": "[RY10, Ethyl 8-Ethyl-5,6-dihydro-5-methyl-6-oxo-4H-imidazo[1,5a][1,4]benzodiazepine-3-carboxylate]", "values": [{"measurement": "reversal of scopolamine-induced memory impairment (in words)", "setting": "C57B1/6 mice", "value": "potently reversed scopolamine-induced memory impairment"}]}, {"smiles": "C#Cc1ccc2c(c1)C(c1ccccc1)=NCC(=O)N2C", "note": "[QH-ii-066]", "values": [{"measurement": "Ki", "setting": "GABAA/α5 receptors", "value": "< 0.01", "unit": "µM"}, {"measurement": "Ki", "setting": "GABAA/α3 receptors", "value": "< 0.05", "unit": "µM"}, {"measurement": "Ki", "setting": "GABAA/α1 receptors", "value": "> 0.07", "unit": "µM"}, {"measurement": "Ki", "setting": "GABAA/α2 receptors", "value": "< 0.05", "unit": "µM"}]}, {"smiles": "C#Cc1ccc2c(c1)C(=O)N(C)Cc1c(C(=O)OCCCOC(=O)c3ncn4c3CN(C)C(=O)c3cc(C#C)ccc3-4)ncn1-2", "note": "[XLi-093, 1,3-Bis(8-acetyleno-5,6-dihydro-5-methyl-6-oxo-4H-imidazo[1,5a][1,4]-benzodiaze-pine-3-carboxy)propyl diester]", "values": [{"measurement": "triggering of chloride currents (in words)", "setting": "[1]; up to a concentration of 1 nM", "value": "did not trigger chloride currents"}, {"measurement": "modulation of GABA induced chloride flux (in words)", "setting": "α1β3γ2 GABAA receptor; 1 uM, α1β3γ2", "value": "did not modulate"}, {"measurement": "influence on diazepam stimulation of GABA-induced current (in words)", "setting": "α1β3γ2 GABAA receptor; 1 μM, α1β3γ2", "value": "only marginally influenced"}, {"measurement": "modulation of GABA induced chloride flux (in words)", "setting": "α2β3γ2 GABAA receptor; 1 uM, α2β3γ2", "value": "did not modulate"}, {"measurement": "influence on diazepam stimulation of GABA-induced current (in words)", "setting": "α2β3γ2 GABAA receptor; 1 μM, α2β3γ2", "value": "only marginally influenced"}, {"measurement": "modulation of GABA induced chloride flux (in words)", "setting": "α3β3γ2 GABAA receptor; 1 uM, α3β3γ2", "value": "did not modulate"}, {"measurement": "influence on diazepam stimulation of GABA-induced current (in words)", "setting": "α3β3γ2 GABAA receptor; 1 μM, α3β3γ2", "value": "only marginally influenced"}, {"measurement": "crossing of the blood brain barrier (in words)", "setting": "[2]", "value": "does cross the blood brain barrier"}, {"measurement": "Ki", "setting": "[3]", "value": 0.015, "unit": "µM"}, {"measurement": "affinity at other BzR/GABA(A) subtypes than α5 (in words)", "setting": "[4]", "value": "little or no affinity"}, {"measurement": "modulation of GABA induced chloride flux (in words)", "setting": "α5β3γ2 GABAA receptor; 1 uM, α5β3γ2", "value": "very slightly inhibited currents"}, {"measurement": "influence on diazepam stimulation of GABA-induced current (in words)", "setting": "α5β3γ2 GABAA receptor; 1 μM, α5β3γ2", "value": "shifted the diazepam dose response curve to the right"}, {"measurement": "inhibition of diazepam-stimulated currents (in words)", "setting": "α5β3γ2 GABAA receptor; α5β3γ2 receptors", "value": "dose dependently and completely inhibit"}, {"measurement": "performance / mean delay under titrating delayed matching to position schedule (in words)", "setting": "C57BL/6J mice", "value": "does indeed enhance performance"}]}, {"smiles": "C#Cc1ccc2c(c1)C(=O)N(C)Cc1c(C(=O)OC(C)(C)C)ncn1-2", "note": "[RY024]", "values": [{"measurement": "triggering of chloride currents (in words)", "setting": "[1]; concentrations up to 1 μM", "value": "did not trigger chloride currents"}, {"measurement": "Estimated maximum modulation ± SD", "setting": "α6β3γ2 GABAA receptor; GABA EC20, α6β3γ2, extrapolated by curve-fit", "value": "+35.2 ± 1.5%"}, {"measurement": "efficacy / modulation of GABA elicited currents at α6 (in words)", "setting": "α6β3γ2 GABAA receptor; oocytes", "value": "weakly stimulated"}, {"measurement": "Estimated maximum modulation ± SD", "setting": "α1β3γ2 GABAA receptor; GABA EC20, α1β3γ2, extrapolated by curve-fit", "value": "−31.0±2.5", "unit": "%"}, {"measurement": "efficacy / modulation of GABA elicited currents at α1 (in words)", "setting": "α1β3γ2 GABAA receptor; oocytes", "value": "reduced GABA elicited currents in a concentration dependent manner"}, {"measurement": "Estimated maximum modulation ± SD", "setting": "α4β3γ2 GABAA receptor; GABA EC20, α4β3γ2, extrapolated by curve-fit", "value": "+43.0 ± 15.9%"}, {"measurement": "efficacy / modulation of GABA elicited currents at α4 (in words)", "setting": "α4β3γ2 GABAA receptor; oocytes", "value": "weakly stimulated"}, {"measurement": "Estimated maximum modulation ± SD", "setting": "α2β3γ2 GABAA receptor; GABA EC20, α2β3γ2, extrapolated by curve-fit", "value": "−20.7±1.2", "unit": "%"}, {"measurement": "efficacy / modulation of GABA elicited currents at α2 (in words)", "setting": "α2β3γ2 GABAA receptor; oocytes", "value": "reduced GABA elicited currents in a concentration dependent manner"}, {"measurement": "reduction of the stimulation by 30 nM Diazepam", "setting": "α3β3γ2 GABAA receptor; 1 μM compound, α3 containing receptors, GABA EC3", "value": "96.3±4.7", "unit": "%"}, {"measurement": "Estimated maximum modulation ± SD", "setting": "α3β3γ2 GABAA receptor; GABA EC20, α3β3γ2, extrapolated by curve-fit", "value": "−3.3±2.1", "unit": "%"}, {"measurement": "efficacy / modulation of GABA elicited currents at α3 (in words)", "setting": "α3β3γ2 GABAA receptor; oocytes", "value": "no apparent modulation"}, {"measurement": "Estimated maximum modulation ± SD", "setting": "α5β3γ2 GABAA receptor; GABA EC20, α5β3γ2, extrapolated by curve-fit", "value": "−40.4±0.8", "unit": "%"}, {"measurement": "efficacy / modulation of GABA elicited currents at α5 (in words)", "setting": "α5β3γ2 GABAA receptor; oocytes", "value": "reduced GABA elicited currents in a concentration dependent manner"}, {"measurement": "EC50 lower for α5 containing receptors than for α1 and α2", "setting": "α5β3γ2 GABAA receptor; reduction of GABA elicited currents", "value": "~10", "unit": "fold"}]}]}
